Read-outs that look alike come from different tables or passages of the source.
Legend:
[1] = molecular target: T1, eosinophil peroxidase (EPO) (Homo sapiens, UniProt P11678); assay: Inhibition of EPO-mediated bromination, monochlorodimedone (MCD) assay; assay type: biochemical
T1 construct: Eosinophil peroxidase was purified from human white blood cells to a purity index (A413/A280) of at least 1.0; from tissue; host or cells: human white blood cells
Protocol: Eosinophil peroxidase was purified from human white blood cells to a purity index (A413/A280) of at least 1.0 as described by Olsen and Little[27]. Its concentration was calculated using ε413 nm 110 000 M^−1 cm−1[28] Hydrogen peroxide, obtained as a 30% solution from Sigma Chemical Co., was diluted and the concentration determined by the absorbance measurement at 240 nm where the extinction coefficient is 39.4 M^−1 cm−1[29]. The other chemicals were also purchased from Sigma Chemical Co. at the highest grade available.
Halogenation activity was measured spectrophotometrically (Hitachi U-3000) using the monochlorodimedone (MCD) assay. MCD (100 µM) was dissolved in 100 mM phosphate buffer, pH 7.0 containing either bromide (100 mM) or chloride (100 mM) and 20 nM EPO. Upon addition of 100 µM H2O2 MCD was converted into dibromodimedone. […] If necessary the inhibitor stock solutions were prepared in dimethylsulfoxide (DMSO) and stored in dark flasks. Dilution was performed with 100 mM phosphate buffer, pH 7.0, to a final DMSO concentration of maximal 2% (v/v) in all assays. […] The inhibitor concentration that inhibited eosinophil peroxidase-dependent oxidation of MCD by 50% (IC50) was determined by fitting a rectangular hyperbola to the dose-response curve using nonlinear regression (see supplemental information A). All measurements were made in triplicate.
The 277 selected compounds were tested for inhibition. Monochlorodimedon (MCD) was used to monitor inhibition of EPO-mediated bromination. It turned out that certain compounds such as hydrazides are able to inhibit the EPO. Table 3 lists the IC50 values of four different 4-chlorophenyl derivatives of hydrazides and acetic acid. […] It is apparent that a free terminal amino group, which could act as an […] is essential for a strong inhibition, additional to steric and/or electrochemical properties of these compounds.
Supplementary Figure S1: IC 50 plots of inhibition of EPO halogenation activity. Figure A- […]
20 nM EPO and 200 µM hydrogen peroxide. Reactions were carried out in 100 mM phosphate buffer, pH 7, at 25 °C, Data are means of triplicate experiments. The inhibitory effect of each inhibitor was measured by determining the concentration at which it inhibited oxidation of MCD by 50% (IC50).

EPO Compound I = tested on: T2, EPO Compound I; assay: Sequential-mixing stopped-flow: reaction of EPO Compound I with inhibitors; assay type: biochemical, human; conditions: for apparent second-order rate constant for Compound I reduction (k3): 100 mM phosphate buffer, pH 7.0, 25 °C; for type of inhibition (reversible / irreversible): concluded from pre-steady-state kinetics
T2 construct: Eosinophil peroxidase was purified from human white blood cells to a purity index (A413/A280) of at least 1.0; from tissue; host or cells: human white blood cells
Protocol: (§1) The sequential stopped-flow apparatus (model SX-18 MV) and the associated computer system were from Applied Photophysics (UK). Because of the inherent instability of Compound I of EPO, the sequential stopped-flow (multi-mixing) technique was used for determination of rate of the reaction of Compound I with different inhibitors. Similar to bovine LPO, human EPO Compound I could be formed with equimolar concentrations of H2O2. In a typical experiment, 2 µM EPO was premixed with 2 µM H2O2 in the aging loop. After 100 ms of delay, the formed Compound I was mixed with increasing concentrations of different inhibitors. Formation and reduction of Compound II by compound 10 was investigated by following the biphasic time trace at 423 nm, where the transition of Compound I to Compound II and further to the […] can be followed. The kinetic traces were fitted using the double-exponential equation of the Applied Photophysics software. At least three determinations (2000 data points) of pseudo-first-order rate constants (kobs) from the first phase of the reaction were performed for each substrate concentration and the mean value was used in the calculation of the second-order rate constants, which were calculated from the slope of the line defined by a plot of kobs versus substrate concentration. Compound 11 was investigated by following the biphasic time traces at 430 nm the maximum absorbance of Compound II. All reactions were followed both at single wavelengths as well as with a diode-array detector. Polychromatic data were analysed with Pro-Kineticist from Applied Photophysics. The program simultaneously fits the kinetic traces at all wavelengths to the proposed reaction mechanism and simulates the spectra of all reactant, product and intermediate species as well as their time-dependent distribution on the reaction coordinate. All measurements were done in 100 mM phosphate buffer, pH 7.0, at 25 °C with a minimum of three repeats.
In order to determine the mechanism of inhibition of EPO with aceto-hydrazide, acetic acid and thioacetic acid derivatives, a pre-steady-state kinetic study was performed with sequential-mixing stopped-flow spectroscopy. Three redox intermediates are relevant in the enzymology of EPO, namely Compound I, Compound II and Compound III (Figure 3). […] Alternatively, Compound I can also be reduced back by two one-electron reduction steps via Compound II (k3 and k4), Figure 3). The ferric enzyme can be reduced to ferrous enzyme (k5). Compound III can be formed either from ferric enzyme by reversible binding of superoxide (O2^–) (k6) or from the ferrous enzyme by reversible binding of dioxygen (O2) (k7). […]
(§2) Firstly we investigated compound 10. […] Compound I reduction with compound 10 was measured at 423 nm. […]

EPO Compound II = tested on: T3, EPO Compound II; assay: Sequential-mixing stopped-flow: reaction/transition of EPO Compound II with inhibitors; assay type: biochemical, human; conditions: pH 7.0, 25 °C; for apparent second-order rate constant for Compound II reduction (k4): 100 mM phosphate buffer
T3 construct: Eosinophil peroxidase was purified from human white blood cells to a purity index (A413/A280) of at least 1.0; from tissue; host or cells: human white blood cells
Protocol: as §1, with “repeats. […]” for “repeats.”
as §2

[2] = tested on: dextran sulfate-induced model of ulcerative colitis; design: method as in PMID 15100311; conditions: wild-type mice; cited from earlier work
[3] = training and test set compounds of the pharmacophore model, read-out: EPO IC50
[4] = as stated in text (abstract, conclusion), read-out: IC50
[5] = Table 3, 20 nM EPO, 100 mM bromide, 100 µM H2O2, pH 7.0, read-out: IC50 value
[6] = Table 4, 20 nM EPO, 100 mM bromide, 100 µM H2O2, pH 7.0, read-out: IC50 value

T1 sequence (P11678 251-715 limits assumed): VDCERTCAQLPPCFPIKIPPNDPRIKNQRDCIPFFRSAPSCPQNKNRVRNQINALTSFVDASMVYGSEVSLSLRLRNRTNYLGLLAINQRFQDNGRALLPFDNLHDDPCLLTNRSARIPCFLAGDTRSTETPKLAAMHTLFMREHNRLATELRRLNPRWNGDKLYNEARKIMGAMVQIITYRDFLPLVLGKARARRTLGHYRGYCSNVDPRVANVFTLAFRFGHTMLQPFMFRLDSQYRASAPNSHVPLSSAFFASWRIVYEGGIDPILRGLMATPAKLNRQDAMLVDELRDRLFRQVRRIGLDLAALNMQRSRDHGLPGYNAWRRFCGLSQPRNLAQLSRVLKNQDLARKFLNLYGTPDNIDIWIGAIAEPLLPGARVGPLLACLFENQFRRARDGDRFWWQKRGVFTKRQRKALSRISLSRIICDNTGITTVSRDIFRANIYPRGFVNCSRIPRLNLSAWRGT
T1 sequence (P11678 140-250 limits assumed): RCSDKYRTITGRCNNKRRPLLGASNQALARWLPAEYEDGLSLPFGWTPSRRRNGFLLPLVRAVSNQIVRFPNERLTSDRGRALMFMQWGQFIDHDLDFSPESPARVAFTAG

SMILES	IC50 [1, 3] [nM]	IC50 [1, 6] [nM]	other results
NNC(=O)c1nn(-c2ccccc2C(F)(F)F)cc1O [Compound 1, reference compound]	50	–	–
Cn1c(=O)[nH]c(=O)c2c1nc(NCCCO)n2CCO [Compound 2, reference compound]	120	–	–
NNC(=O)c1ccccc1O [Compound 3, reference compound]	75	–	–
NNC(=O)c1nn(-c2ccccc2)cc1O [Compound 4, reference compound]	420	–	–
NNc1cc(Cl)ccc1[N+](=O)[O-] [Compound 5, reference compound]	770	–	–
CC/N=c1/scc(-c2ccc(O)c(C(N)=O)c2)n1CC [Compound 6, reference compound]	980	–	–
C=CCNc1nc2c(c(=O)[nH]c(=O)n2C)n1CC(O)CO (stereo not shown) [Compound 7, reference compound]	1050	–	–
COc1ccc2[nH]cc(CCNC(C)=O)c2c1 [Compound 8, reference compound]	2900	–	–
NNC(=O)c1ccc(O)cc1O [Compound 9, reference compound]	3520	–	–
NNC(=O)CNc1ccc(Cl)cc1 [Compound 10, 2-[(4-chlorophenyl)amino]-acetohydrazide]	–	–	apparent second-order rate constant for Compound I reduction (k3) (EPO Compound I): 9.2e+06 M⁻¹ s⁻¹; type of inhibition (reversible / irreversible) (EPO Compound I): irreversible inhibitor; IC50 [1, 4]: 21 nM; rate constant for transition Compound II - Compound III (EPO Compound II; independent of inhibitor concentration): ~1.2 s⁻¹
O=C(O)CNc1ccc(Cl)cc1 [Compound 11, 2-[(4-chlorophenyl)amino]-acetic acid]	–	–	apparent second-order rate constant for Compound I reduction (k3) (EPO Compound I): 6.9e+06 M⁻¹ s⁻¹; type of inhibition (reversible / irreversible) (EPO Compound I): reversible inhibitor; IC50 [1, 5]: 205 ± 30 nM; apparent second-order rate constant for Compound II reduction (k4) (EPO Compound II): 11000 M⁻¹ s⁻¹
NNC(=O)CSc1ccc(Cl)cc1 [Compound 12, 2-(4-chlorophenyl) thio-acetohydrazide]	–	–	apparent second-order rate constant for Compound II reduction (k4) (EPO Compound II): 140000 M⁻¹ s⁻¹
NNC(=O)COc1ccc(Cl)cc1 [Compound 13, 2-(4-chlorophenoxy)-aceto-hydrazide]	–	–	IC50 [1, 5]: 4900 ± 100 nM
NNC(=O)CNc1ccccc1 [Compound 14, PAAH]	–	2900 ± 100	–
Cc1ccc(NCC(=O)NN)cc1 [Compound 15, 4-Methyl-PAAH]	–	2270 ± 90	–
NNC(=O)CNc1ccc(F)cc1 [Compound 16, 4-Fluoro-PAAH]	–	172 ± 30	–
NNC(=O)CNc1ccc(Br)cc1 [Compound 17, 4-Bromo-PAAH]	–	823 ± 80	–
NNC(=O)CNc1ccc(I)cc1 [Compound 18, 4-Iodo-PAAH]	–	290 ± 20	–
NNC(=O)CNc1ccccc1F [Compound 19, 2-[(2-fluorophenyl)amino]-aceto-hydrazide]	–	10 ± 5	IC50 [1, 4]: 10 nM
NNC(=O)CNc1ccc(F)cc1F [Compound 20, 2,4-di Fluoro-PAAH]	–	20 ± 6	–
NNC(=O)CNc1ccc(F)c(Cl)c1 [Compound 21, 3-Chloro-4-fluoro-PAAH]	–	34 ± 5	–
NNC(=O)CNc1ccccc1Cl [Compound 22, 2-Chloro-PAAH]	–	910 ± 40	–
NNC(=O)CNc1cccc(Br)c1 [Compound 23, 3-Bromo-PAAH]	–	823 ± 60	–
Oc1cccc(O)c1 [resorcinol]	–	–	disease activity parameters (weight loss, colon shrinkage, colonic bleeding) [2]: diminished
